33 molecules from ChEMBL document CHEMBL5149992, “Discovery, Optimization, and Evaluation of Quinazolinone Derivatives with Novel Linkers as Orally Efficacious Phosphoinositide-3-Kinase Delta Inhibitors for Treatment of Inflammatory Diseases” (J Med Chem, 2021) can be followed below.

The conditions of series [1]: human, microsomes, 10 µM.
For series [2], the target named is Phosphatidylinositol 4,5-bisphosphate 3-kinase catalytic subunit gamma isoform (Homo sapiens, UniProt P48736). Kind of series: Inhibition of PI3Kgamma (unknown origin).
Phosphatidylinositol 4,5-bisphosphate 3-kinase catalytic subunit gamma isoform, sequence (P48736 whole entry, canonical isoform): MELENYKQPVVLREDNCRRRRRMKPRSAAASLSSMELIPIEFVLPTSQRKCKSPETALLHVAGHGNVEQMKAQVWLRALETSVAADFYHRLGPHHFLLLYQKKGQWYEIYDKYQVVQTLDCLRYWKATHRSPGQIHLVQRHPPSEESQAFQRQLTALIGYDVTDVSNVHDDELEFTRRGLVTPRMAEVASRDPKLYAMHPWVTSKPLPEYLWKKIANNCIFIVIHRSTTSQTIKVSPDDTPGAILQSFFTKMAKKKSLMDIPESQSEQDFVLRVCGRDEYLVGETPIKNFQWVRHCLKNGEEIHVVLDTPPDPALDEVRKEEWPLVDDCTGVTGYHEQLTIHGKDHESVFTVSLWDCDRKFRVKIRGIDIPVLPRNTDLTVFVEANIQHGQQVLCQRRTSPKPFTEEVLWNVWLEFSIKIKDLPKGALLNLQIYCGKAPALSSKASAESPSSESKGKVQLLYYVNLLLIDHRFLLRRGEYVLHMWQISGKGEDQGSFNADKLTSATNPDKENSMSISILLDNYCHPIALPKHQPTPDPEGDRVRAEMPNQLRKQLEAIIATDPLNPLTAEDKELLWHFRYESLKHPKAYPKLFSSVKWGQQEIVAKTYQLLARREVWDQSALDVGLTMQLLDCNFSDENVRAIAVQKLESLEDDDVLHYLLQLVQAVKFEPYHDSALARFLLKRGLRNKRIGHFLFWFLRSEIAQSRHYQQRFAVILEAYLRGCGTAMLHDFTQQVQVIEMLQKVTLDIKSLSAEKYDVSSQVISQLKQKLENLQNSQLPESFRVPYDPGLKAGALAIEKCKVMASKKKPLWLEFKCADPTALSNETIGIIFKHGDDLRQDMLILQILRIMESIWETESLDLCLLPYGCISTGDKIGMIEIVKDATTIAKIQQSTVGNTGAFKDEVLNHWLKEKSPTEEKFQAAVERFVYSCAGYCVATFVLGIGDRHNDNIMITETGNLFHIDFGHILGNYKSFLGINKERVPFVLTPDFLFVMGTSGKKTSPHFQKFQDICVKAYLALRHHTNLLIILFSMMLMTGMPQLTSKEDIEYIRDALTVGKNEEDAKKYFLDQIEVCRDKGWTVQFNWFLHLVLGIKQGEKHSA
In series [3] the target is T1, Phosphatidylinositol 4,5-bisphosphate 3-kinase catalytic subunit beta isoform (Homo sapiens, UniProt P42338). Put plainly: Inhibition of PI3Kbeta (unknown origin) at 0.1 uM relative to control.
Target sequence in this assay (P42338 whole entry, looked up, canonical isoform): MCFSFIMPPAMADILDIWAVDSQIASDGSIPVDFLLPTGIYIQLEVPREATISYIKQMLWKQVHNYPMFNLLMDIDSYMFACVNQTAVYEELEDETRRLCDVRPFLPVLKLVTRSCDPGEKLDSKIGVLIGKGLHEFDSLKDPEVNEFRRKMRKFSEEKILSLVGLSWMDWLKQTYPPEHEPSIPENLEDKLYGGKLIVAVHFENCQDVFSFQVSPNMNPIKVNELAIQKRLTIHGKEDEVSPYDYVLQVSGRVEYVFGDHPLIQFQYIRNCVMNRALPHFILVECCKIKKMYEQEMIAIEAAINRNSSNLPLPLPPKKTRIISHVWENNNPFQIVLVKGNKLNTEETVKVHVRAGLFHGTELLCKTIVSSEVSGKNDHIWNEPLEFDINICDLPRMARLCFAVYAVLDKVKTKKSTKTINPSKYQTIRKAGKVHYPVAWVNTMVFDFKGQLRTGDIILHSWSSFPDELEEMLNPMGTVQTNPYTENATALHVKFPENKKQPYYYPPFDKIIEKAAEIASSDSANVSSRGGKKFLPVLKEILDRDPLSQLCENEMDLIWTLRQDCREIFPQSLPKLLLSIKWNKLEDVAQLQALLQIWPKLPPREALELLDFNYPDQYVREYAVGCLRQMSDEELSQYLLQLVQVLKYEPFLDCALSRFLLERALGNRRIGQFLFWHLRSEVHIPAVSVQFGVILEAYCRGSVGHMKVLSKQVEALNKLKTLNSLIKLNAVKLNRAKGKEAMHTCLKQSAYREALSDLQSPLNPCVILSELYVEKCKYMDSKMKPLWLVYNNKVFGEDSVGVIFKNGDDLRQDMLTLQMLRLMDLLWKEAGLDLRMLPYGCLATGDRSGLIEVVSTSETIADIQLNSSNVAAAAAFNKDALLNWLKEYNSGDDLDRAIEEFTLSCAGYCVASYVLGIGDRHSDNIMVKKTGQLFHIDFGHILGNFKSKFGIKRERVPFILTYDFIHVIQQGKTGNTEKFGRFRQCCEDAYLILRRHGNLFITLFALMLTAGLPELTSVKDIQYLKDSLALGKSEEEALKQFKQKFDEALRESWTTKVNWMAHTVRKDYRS
For series [4], the target named is T2, Phosphatidylinositol 4,5-bisphosphate 3-kinase catalytic subunit alpha isoform (Homo sapiens, UniProt P42336). Put plainly: Inhibition of PI3Kalpha (unknown origin) at 0.1 uM relative to control.
T2 sequence (P42336 whole entry, canonical isoform): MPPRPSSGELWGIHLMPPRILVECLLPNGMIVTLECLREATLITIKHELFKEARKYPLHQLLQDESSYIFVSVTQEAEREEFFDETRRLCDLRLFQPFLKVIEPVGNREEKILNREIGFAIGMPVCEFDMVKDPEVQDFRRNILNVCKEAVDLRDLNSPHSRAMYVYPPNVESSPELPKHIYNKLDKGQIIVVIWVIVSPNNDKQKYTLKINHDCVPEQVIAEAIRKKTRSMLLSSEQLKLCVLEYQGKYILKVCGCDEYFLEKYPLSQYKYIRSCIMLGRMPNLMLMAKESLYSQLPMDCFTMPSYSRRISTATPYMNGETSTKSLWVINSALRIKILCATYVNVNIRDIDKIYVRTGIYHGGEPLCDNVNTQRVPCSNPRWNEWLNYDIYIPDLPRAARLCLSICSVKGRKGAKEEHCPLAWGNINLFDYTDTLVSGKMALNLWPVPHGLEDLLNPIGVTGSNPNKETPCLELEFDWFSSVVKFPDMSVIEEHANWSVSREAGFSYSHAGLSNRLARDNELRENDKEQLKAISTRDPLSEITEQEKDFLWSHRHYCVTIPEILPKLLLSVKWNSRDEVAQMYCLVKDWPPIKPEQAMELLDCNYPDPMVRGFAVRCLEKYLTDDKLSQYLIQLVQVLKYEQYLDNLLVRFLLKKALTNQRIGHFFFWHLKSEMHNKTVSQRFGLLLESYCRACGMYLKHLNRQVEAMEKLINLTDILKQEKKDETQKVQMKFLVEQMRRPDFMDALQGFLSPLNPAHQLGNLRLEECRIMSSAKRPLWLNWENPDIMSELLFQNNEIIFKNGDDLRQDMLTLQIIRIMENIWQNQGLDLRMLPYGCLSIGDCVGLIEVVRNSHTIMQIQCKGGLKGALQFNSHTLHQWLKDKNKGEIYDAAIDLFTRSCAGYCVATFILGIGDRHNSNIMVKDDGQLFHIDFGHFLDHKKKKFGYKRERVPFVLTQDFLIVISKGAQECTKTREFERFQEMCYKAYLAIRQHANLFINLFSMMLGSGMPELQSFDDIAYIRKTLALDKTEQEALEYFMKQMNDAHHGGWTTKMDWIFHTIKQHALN
The target in series [5] is T3, Phosphatidylinositol 4,5-bisphosphate 3-kinase catalytic subunit delta isoform (Homo sapiens, UniProt O00329).
T3 sequence (O00329 whole entry): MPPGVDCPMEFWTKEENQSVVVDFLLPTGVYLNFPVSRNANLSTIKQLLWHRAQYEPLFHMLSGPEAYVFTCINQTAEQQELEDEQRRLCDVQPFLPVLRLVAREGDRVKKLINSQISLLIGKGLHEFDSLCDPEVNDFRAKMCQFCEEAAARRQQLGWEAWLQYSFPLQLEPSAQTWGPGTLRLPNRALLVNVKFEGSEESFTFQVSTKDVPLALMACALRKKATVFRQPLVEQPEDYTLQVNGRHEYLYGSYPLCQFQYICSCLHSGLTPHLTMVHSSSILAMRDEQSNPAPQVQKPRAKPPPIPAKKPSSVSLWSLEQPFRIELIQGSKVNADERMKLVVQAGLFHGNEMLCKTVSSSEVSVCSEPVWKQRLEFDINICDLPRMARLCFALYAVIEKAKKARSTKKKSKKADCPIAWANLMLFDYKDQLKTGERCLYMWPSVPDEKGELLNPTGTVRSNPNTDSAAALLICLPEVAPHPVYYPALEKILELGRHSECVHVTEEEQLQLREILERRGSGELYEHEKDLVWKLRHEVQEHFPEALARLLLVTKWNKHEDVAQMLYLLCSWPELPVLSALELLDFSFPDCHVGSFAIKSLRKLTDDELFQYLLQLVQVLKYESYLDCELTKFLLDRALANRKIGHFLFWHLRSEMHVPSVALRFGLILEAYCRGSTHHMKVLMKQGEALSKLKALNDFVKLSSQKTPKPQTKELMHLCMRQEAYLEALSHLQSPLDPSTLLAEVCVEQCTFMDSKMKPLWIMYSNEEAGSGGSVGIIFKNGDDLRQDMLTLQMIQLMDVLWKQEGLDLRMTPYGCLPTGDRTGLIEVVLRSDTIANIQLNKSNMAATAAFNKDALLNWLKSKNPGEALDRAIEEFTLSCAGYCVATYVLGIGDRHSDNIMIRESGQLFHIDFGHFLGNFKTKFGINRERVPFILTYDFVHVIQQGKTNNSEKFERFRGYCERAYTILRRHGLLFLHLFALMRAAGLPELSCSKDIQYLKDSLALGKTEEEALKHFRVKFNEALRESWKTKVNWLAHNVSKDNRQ
Put plainly: Inhibition of PI3Kdelta (unknown origin).

A short description of series [6]: in vitro. The following applies: human, liver microsomes. (In general: Liver microsomes are a subcellular fraction often used to study metabolism.)
In series [7] the target is T2, Phosphatidylinositol 4,5-bisphosphate 3-kinase catalytic subunit alpha isoform. Put plainly: Inhibition of PI3Kalpha (unknown origin).
Series [8] addresses T1, Phosphatidylinositol 4,5-bisphosphate 3-kinase catalytic subunit beta isoform. Put plainly: Inhibition of PI3Kbeta (unknown origin).
Target sequence in this assay (P42338 whole entry, canonical isoform): as the sequence (P42338 whole entry, looked up, canonical isoform) above
In series [9] the target is T4, Phosphatidylinositol 4,5-bisphosphate 3-kinase catalytic subunit delta isoform (Homo sapiens) (UniProt O00329).
T4 sequence (whole entry): T3 sequence (O00329 whole entry)
Put plainly: Inhibition of PI3Kdelta (unknown origin) at 0.1 uM using phosphatidylinositol as substrate incubated for 30 mins in presence of ATP by HTRF based assay relative to control. For orientation: In TR-FRET formats the signal depends on donor and acceptor labels being close together.

In series [10] the target is T4, Phosphatidylinositol 4,5-bisphosphate 3-kinase catalytic subunit delta isoform (Homo sapiens). Kind of series: Inhibition of PI3Kdelta (unknown origin) at 0.01 uM using phosphatidylinositol as substrate incubated for 30 mins in presence of ATP by HTRF based assay relative to control.

As a reminder, the IC50 is the concentration at which inhibition is half-maximal. Low readings indicate greater potency in that assay, high ones weaker potency in that assay. The inhibition is the relative decrease from the control value, in per cent. For orientation: half-life means the time needed for the level to fall by half in the phase considered. A lower half-life goes with fast loss. In the case of `C[C@H]1CC[C@@H](c2nc3cccc(Cl)c3c(=O)n2N2CCOCC2)N1c1ncnc(N)c1C#N`, in series [1], the CLH worked out at 12.6 mL/min/g. Moreover, the IC50 in series [2] amounted to 295 nM; in series [5], 10 nM. In addition, the inhibition worked out at 45% in [3] and 5% in [4]. Also, the half-life at 60 h, 10 µM in series [6] was found to be 1.83 h.
`N#Cc1c(N)ncnc1N1CC2(CC2)C[C@H]1c1nc2cccc(Cl)c2c(=O)n1-c1ccccc1` gave a CLH in series [1] of 27.6 mL/min/g. The IC50 in [2] is 655 nM; in series [7], more than 1000 nM; in [8] it was more than 1000 nM; in series [5], 20 nM. In addition, the figures for the inhibition in series [9] and in [10] were 83% and 23%, respectively. Also, the half-life at 60 h, 10 µM in series [6] amounted to 0.837 h.
`O=c1c2c(Cl)cccc2nc([C@@H]2C[C@@H]3CCCC[C@@H]3N2c2nc(Cl)nc3[nH]cnc23)n1-c1ccccc1`: the inhibition was 1% in series [9] and -1% in [10].
For `Nc1ccnc(N2[C@H](c3nc4cccc(Cl)c4c(=O)n3-c3ccccc3)C[C@@H]3CCCC[C@@H]32)n1`, the inhibition in series [9] was -3%; in [10], -1%.
On the same counts, the results for `C=CCO[C@@H]1C[C@@H](c2nc3cccc(Cl)c3c(=O)n2-c2ccccc2)N(c2ncnc3[nH]ccc23)C1` are 7% and 2%.
The molecule `Nc1nc(N2CCC[C@H]2c2nc3cccc(Cl)c3c(=O)n2-c2ccccc2)c2nc[nH]c2n1` showed a CLH in series [1] of 21.8 mL/min/g. Also, the half-life at 60 h, 10 µM in [6] amounted to 1.06 h.
As for `C=C1C[C@@H](c2nc3cccc(Cl)c3c(=O)n2-c2ccccc2)N(c2ncnc3[nH]ccc23)C1`, the inhibition in series [9] came to 59%; in series [10] it was 12%.
For the molecule `O=c1c2c(Cl)cccc2nc([C@@H]2C[C@@H]3CCCC[C@@H]3N2c2ncnc3[nH]cnc23)n1-c1ccccc1`, the inhibition in series [9] amounted to 8%; in series [10], 0%.
`C[C@H]1CC[C@@H](c2nc3cccc(Cl)c3c(=O)n2-c2cccnc2)N1c1ncnc(N)c1C#N` displayed a CLH in series [1] of 13.4 mL/min/g. The IC50 in [2] turned out to be 351 nM; in [5], 4 nM. Also, the inhibition in series [3] stood at 45%; in [4] it was 18%. In [6], this molecule returned a half-life at 60 h, 10 µM of 1.72 h.
For the molecule `O=c1c2c(Cl)cccc2nc([C@@H]2C[C@@H]3CCCC[C@@H]3N2c2ncnc3[nH]ccc23)n1-c1ccccc1`, the inhibition in series [9] worked out at 3%; in series [10] it was 1%.
In the case of `C=C1C[C@@H](c2nc3cccc(Cl)c3c(=O)n2-c2ccccc2)N(c2nc(N)nc3[nH]cnc23)C1`, the inhibition in series [9] came out at 96%; in series [10], 52%.
In the case of `C[C@H]1CC[C@@H](c2nc3cccc(Cl)c3c(=O)n2-c2ccccc2)N1c1ncnc(N)c1C#N`, the CLH in series [1] is 22.6 mL/min/g. The 50% inhibitory concentration (IC50) in [2] was 144 nM; in series [7] it was more than 1000 nM; in [8] it was 968 nM; in [5] it was 5 nM. This molecule also displayed a half-life at 60 h, 10 µM in series [6] of 1.02 h.
As for `O=c1c2c(Cl)cccc2nc([C@@H]2CC3(CC3)CN2c2ncnc3[nH]ccc23)n1-c1ccccc1`, the inhibition in series [9] is 8%; in [10], 2%.
Regarding `Cc1ccnc(N2[C@H](c3nc4cccc(Cl)c4c(=O)n3-c3ccccc3)C[C@@H]3CCCC[C@@H]32)n1`, the inhibition in series [9] and in series [10] was -1% in each case.
With `O=c1c2c(Cl)cccc2nc([C@@H]2CC3(CC3)CN2c2ncnc3[nH]cnc23)n1-c1ccccc1`, the values for the inhibition in series [9] and in series [10] were 32% and 3%, respectively.
Molecule `C=C1C[C@@H](c2nc3cccc(Cl)c3c(=O)n2-c2ccccc2)N(c2ncnc(N)c2C#N)C1` gave a CLH in series [1] of 103.8 mL/min/g. Besides, the IC50 in [2] is 250 nM; in [7], more than 1000 nM; in series [8], 819 nM; in series [5], 3 nM. Besides, the inhibition in series [9] came out at 102%; in series [10], 79%. The same molecule yielded a half-life at 60 h, 10 µM in [6] of 0.223 h.
Consider `C[C@H]1CC[C@@H](c2nc3cccc(Cl)c3c(=O)n2-c2cccc(F)c2)N1c1ncnc(N)c1C#N`, for which the CLH in series [1] was determined as 10.4 mL/min/g. For the same molecule, the IC50 was 199 nM in [2], more than 1000 nM in series [7], more than 1000 nM in series [8] and 3 nM in series [5]. In [6], this molecule yielded a half-life at 60 h, 10 µM of 2.22 h.
As for `C[C@H]1CC[C@@H](c2nc3cccc(Cl)c3c(=O)n2-c2cccc(F)c2)N1c1nc(N)nc2[nH]cnc12`, the IC50 in [2] and in series [5] was 9 nM throughout. Moreover, the inhibition amounted to 43% in [3] and 42% in series [4].
Turning to `N#Cc1cccnc1N1[C@H](c2nc3cccc(Cl)c3c(=O)n2-c2ccccc2)C[C@@H]2CCCC[C@@H]21`, the inhibition in series [9] was 0%; in series [10], -1%.
Regarding `Nc1nc(N2CC3(CC3)C[C@H]2c2nc3cccc(Cl)c3c(=O)n2-c2ccccc2)c2nc[nH]c2n1`, the inhibition in series [9] was 44%; in series [10] it was 8%.
In turn, `N#Cc1c(N)ncnc1N1[C@H](c2nc3cccc(Cl)c3c(=O)n2-c2cc(F)cc(F)c2)C[C@@H]2CCCC[C@@H]21` yielded a CLH in [1] of less than 12 mL/min/g. For the same molecule, the IC50 is more than 1000 nM in [2], more than 1000 nM in series [7], more than 1000 nM in series [8] and 142 nM in series [5]. In series [6], the half-life at 60 h, 10 µM was more than 2 h.
Turning to `O=c1c2c(Cl)cccc2nc([C@@H]2C[C@@H]3CCCC[C@@H]3N2c2ncnc3[nH]ncc23)n1-c1ccccc1`, the inhibition in series [9] and in series [10] was -3% in each case.
Take `Nc1nc(N2CC(F)(F)C[C@H]2c2nc3cccc(Cl)c3c(=O)n2-c2ccccc2)c2nc[nH]c2n1`: the inhibition was 50% in series [9] and 11% in series [10].
Turning to `Nc1nc(N2[C@H](c3nc4cccc(Cl)c4c(=O)n3-c3ccccc3)C[C@@H]3CCCC[C@@H]32)c2nc[nH]c2n1`, the inhibition was 6% in series [9] and 2% in [10].
As to `C=C1C[C@@H](c2nc3cccc(Cl)c3c(=O)n2-c2ccccc2)N(c2ncnc3[nH]cnc23)C1`, the inhibition in series [9] is 75%; in series [10], 28%.
In the case of `O=c1c2c(Cl)cccc2nc([C@@H]2C[C@@H]3CCCC[C@@H]3N2c2nccc(Cl)n2)n1-c1ccccc1`, the inhibition in series [9] and in [10] was -2% throughout.
For `C=CCO[C@@H]1C[C@@H](c2nc3cccc(Cl)c3c(=O)n2-c2ccccc2)N(c2ncnc3[nH]cnc23)C1`, the inhibition was found to be 8% in series [9] and 1% in series [10].
On the same counts, the results for `O=c1c2c(Cl)cccc2nc([C@@H]2CC(F)(F)CN2c2ncnc3[nH]cnc23)n1-c1ccccc1` are 34% and 4%.
`C[C@H]1CC[C@@H](c2nc3cccc(Cl)c3c(=O)n2-c2cccc(F)c2)N1c1ncnc2[nH]ccc12`: the half-inhibitory concentration (IC50) in [2] turned out to be 74 nM; in [5], 30 nM. Besides, the inhibition in [4] was determined as 19%.
On to `C=CCO[C@@H]1C[C@@H](c2nc3cccc(Cl)c3c(=O)n2-c2ccccc2)N(c2nc(N)nc3[nH]cnc23)C1`, for which the inhibition in series [9] was found to be 42%; in series [10], 7%.
With `O=c1c2c(Cl)cccc2nc([C@@H]2CC(F)(F)CN2c2ncnc3[nH]ccc23)n1-c1ccccc1`, the inhibition in series [9] is 26%; in series [10], 4%.
In turn, `N#Cc1c(N)ncnc1N1[C@H](c2nc3cccc(F)c3c(=O)n2-c2cc(F)cc(F)c2)C[C@@H]2CCCC[C@@H]21` showed a CLH in [1] of 2.4 mL/min/g. The IC50 is more than 1000 nM in series [2], more than 1000 nM in series [7], more than 1000 nM in series [8] and 305 nM in [5]. In [6], this molecule came in with a half-life at 60 h, 10 µM of 9.62 h.
Molecule `C=CCO[C@@H]1C[C@@H](c2nc3cccc(Cl)c3c(=O)n2-c2ccccc2)N(c2ncnc(N)c2C#N)C1` registered a CLH in series [1] of 767 mL/min/g. In addition, the IC50 in series [5] is 67 nM. The figures for the inhibition in series [9] and in series [10] were 47% and 17%, respectively. In series [6], the half-life at 60 h, 10 µM came out at 0.03 h.
